# Laboratory results: US20020137929A1, “1 - (3-heterocyclylphenyl) isothiourea, -isourea, -guanidine and -amidine herbicidal agents” (Intellectual Property Department, BASF Aktiengesellschaft, priority 1998, published 2002)
# Columns and labels:
# ABUTH (Velvetleaf) [1] = assay: Postemergence herbicidal evaluation; assay type: in vivo, Abutilon theophrasti; conditions: postemergence
# In short: (§1)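 Compound is applied as a foliar spray to seedlings about two weeks old, formulated in equal parts acetone and water with 0.5% TWEEN 20 and delivered at 40 psi to give about 0.0156–0.500 kg per hectare. Injury is rated visually 0–9 after four to five weeks.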
# [2] = test system: IPOHE (Morningglory, Ivyleaf); assay: Postemergence herbicidal evaluation; assay type: in vivo, Ipomoea hederacea; conditions: postemergence
# In short: as §1
# SETVI (Foxtail, Green) = assay: Postemergence herbicidal evaluation; assay type: in vivo, Setaria viridis; conditions: postemergence
# In short: as §1
# [3] = test system: GLXMAW (Soybean, Williams); assay: Postemergence herbicidal evaluation; assay type: in vivo, Glycine max, (L.) Merr. cv Williams; conditions: postemergence
# In short: as §1
# ZEAMX (Corn, Field) = assay: Postemergence herbicidal evaluation; assay type: in vivo, Zea mays; conditions: postemergence
# In short: as §1
# ABUTH (Velvetleaf) [4] = assay: Preemergence herbicidal evaluation; assay type: in vivo, Abutilon theophrasti; conditions: rated 4-5 weeks after treatment
# In short: (§2)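 Visual 0-9 rating vs control (stand, vigor, malformation, size, chlorosis, overall appearance), scored 4-5 wk after spraying. Seeded soil cups were treated preemergence with compound in aqueous acetone, ~0.0156-0.500 kg/ha equivalent.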
# AMBEL (Ragweed, Common) = assay: Preemergence herbicidal evaluation; assay type: in vivo, Ambrosia artemisifolia; conditions: rated 4-5 weeks after treatment
# In short: as §2
# CASOB (Sicklepod) = assay: Preemergence herbicidal evaluation; assay type: in vivo, Cassia obtusifolia; conditions: rated 4-5 weeks after treatment
# In short: as §2
# [5] = test system: IPOHE (Morningglory, Ivyleaf); assay: Preemergence herbicidal evaluation; assay type: in vivo, Ipomoea hederacea; conditions: rated 4-5 weeks after treatment
# In short: as §2
# ECHCG (Barnyardgrass) = assay: Preemergence herbicidal evaluation; assay type: in vivo, Echinochloa crus-galli; conditions: rated 4-5 weeks after treatment
# In short: as §2
# [6] = test system: ECHORC (Watergrass (Calif.)); assay: Preemergence weed control under flooded paddy conditions; assay type: in vivo, Echinochloa oryzoides; conditions: rated 3-4 weeks after treatment
# In short: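 Ratings on a 0-9 visual scale cover stand, vigor, malformation, size, chlorosis and overall appearance relative to a control, taken three to four weeks post-treatment. Application was into flood water over freshly sown silt loam at roughly 0.0313 to 0.500 kg/ha.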
# CYPSE (Flatsedge) = assay: as above; assay type: in vivo, Cyperus serotinus; conditions: rated 3-4 weeks after treatment
# In short: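 Seeds or propagules sown in top 0.5 cm of silt loam soil, flooded 1.5 to 3 cm above surface throughout. Compound in 50/50 v/v aqueous/acetone pipetted into flood water at about 0.0313 to 0.500 kg/ha. Visual 0-9 rating versus control after three to four weeks in greenhouse.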
smiles,measurement,setting,value
"C#CC(C)N1C(=O)CSC1=Nc1cc(-n2c(=O)cc(C(F)(F)F)n(C)c2=O)c(F)cc1Cl (stereo not drawn) [Compound 165, 3-{4-Chloro-2-fluoro-5-{[3-(1-methyl-2-propynyl)-4-oxo-2-thiazolidinylidene]amino}phenyl}-1-methyl-6-(trifluoromethyl)-2,4(1H,3H)-pyrimidinedione]",herbicidal rating ABUTH,ABUTH (Velvetleaf) [1]; rate 0.0156 kg/ha,9.0
same,herbicidal rating ABUTH,ABUTH (Velvetleaf) [1]; rate 0.0313 kg/ha,9.0
same,herbicidal rating ABUTH,ABUTH (Velvetleaf) [1]; rate 0.0625 kg/ha,9.0
same,herbicidal rating ABUTH,ABUTH (Velvetleaf) [1]; rate 0.1250 kg/ha,9.0
same,herbicidal rating IPOHE,[2]; rate 0.0156 kg/ha,9.0
same,herbicidal rating IPOHE,[2]; rate 0.0313 kg/ha,9.0
same,herbicidal rating IPOHE,[2]; rate 0.0625 kg/ha,9.0
same,herbicidal rating IPOHE,[2]; rate 0.1250 kg/ha,9.0
same,herbicidal rating SETVI,"SETVI (Foxtail, Green); rate 0.0156 kg/ha",2.0
same,herbicidal rating SETVI,"SETVI (Foxtail, Green); rate 0.0313 kg/ha",6.0
same,herbicidal rating SETVI,"SETVI (Foxtail, Green); rate 0.0625 kg/ha",9.0
same,herbicidal rating SETVI,"SETVI (Foxtail, Green); rate 0.1250 kg/ha",7.0
same,herbicidal rating GLXMAW,[3]; rate 0.0156 kg/ha,5.0
same,herbicidal rating GLXMAW,[3]; rate 0.0313 kg/ha,5.0
same,herbicidal rating GLXMAW,[3]; rate 0.0625 kg/ha,6.5
same,herbicidal rating GLXMAW,[3]; rate 0.1250 kg/ha,7.0
same,herbicidal rating ZEAMX,"ZEAMX (Corn, Field); rate 0.0156 kg/ha",4
same,herbicidal rating ZEAMX,"ZEAMX (Corn, Field); rate 0.0313 kg/ha",5.0
same,herbicidal rating ZEAMX,"ZEAMX (Corn, Field); rate 0.0625 kg/ha",5.0
same,herbicidal rating ZEAMX,"ZEAMX (Corn, Field); rate 0.1250 kg/ha",5.5
same,Preemergence herbicidal rating ABUTH,ABUTH (Velvetleaf) [4]; 0.0156 kg/ha,0.0
same,Preemergence herbicidal rating ABUTH,ABUTH (Velvetleaf) [4]; 0.0313 kg/ha,0.0
same,Preemergence herbicidal rating ABUTH,ABUTH (Velvetleaf) [4]; 0.0625 kg/ha,0.0
same,Preemergence herbicidal rating ABUTH,ABUTH (Velvetleaf) [4]; 0.1250 kg/ha,9.0
same,Preemergence herbicidal rating ABUTH,ABUTH (Velvetleaf) [4]; 0.2500 kg/ha,9.0
same,Preemergence herbicidal rating ABUTH,ABUTH (Velvetleaf) [4]; 0.5000 kg/ha,9.0
same,Preemergence herbicidal rating AMBEL,"AMBEL (Ragweed, Common); 0.0156 kg/ha",0.0
same,Preemergence herbicidal rating AMBEL,"AMBEL (Ragweed, Common); 0.0313 kg/ha",1.0
same,Preemergence herbicidal rating AMBEL,"AMBEL (Ragweed, Common); 0.0625 kg/ha",0.0
same,Preemergence herbicidal rating AMBEL,"AMBEL (Ragweed, Common); 0.1250 kg/ha",7.0
same,Preemergence herbicidal rating AMBEL,"AMBEL (Ragweed, Common); 0.2500 kg/ha",7.0
same,Preemergence herbicidal rating AMBEL,"AMBEL (Ragweed, Common); 0.5000 kg/ha",9.0
same,Preemergence herbicidal rating CASOB,CASOB (Sicklepod); 0.0313 kg/ha,0.0
same,Preemergence herbicidal rating CASOB,CASOB (Sicklepod); 0.0625 kg/ha,0.0
same,Preemergence herbicidal rating CASOB,CASOB (Sicklepod); 0.1250 kg/ha,1.0
same,Preemergence herbicidal rating CASOB,CASOB (Sicklepod); 0.2500 kg/ha,7.0
same,Preemergence herbicidal rating CASOB,CASOB (Sicklepod); 0.5000 kg/ha,7.0
same,Preemergence herbicidal rating IPOHE,[5]; 0.0156 kg/ha,0.0
same,Preemergence herbicidal rating IPOHE,[5]; 0.0313 kg/ha,0.0
same,Preemergence herbicidal rating IPOHE,[5]; 0.1250 kg/ha,2.0
same,Preemergence herbicidal rating IPOHE,[5]; 0.2500 kg/ha,9.0
same,Preemergence herbicidal rating IPOHE,[5]; 0.5000 kg/ha,9.0
same,Preemergence herbicidal rating ECHCG,ECHCG (Barnyardgrass); 0.0156 kg/ha,0.0
same,Preemergence herbicidal rating ECHCG,ECHCG (Barnyardgrass); 0.0313 kg/ha,0.0
same,Preemergence herbicidal rating ECHCG,ECHCG (Barnyardgrass); 0.0625 kg/ha,0.0
same,Preemergence herbicidal rating ECHCG,ECHCG (Barnyardgrass); 0.1250 kg/ha,3.0
same,Preemergence herbicidal rating ECHCG,ECHCG (Barnyardgrass); 0.2500 kg/ha,6.0
same,Preemergence herbicidal rating ECHCG,ECHCG (Barnyardgrass); 0.5000 kg/ha,7.0
same,"herbicidal effect rating, ECHORC",[6]; 0.0313 kg/ha,9.0
same,"herbicidal effect rating, ECHORC",[6]; 0.0625 kg/ha,9.0
same,"herbicidal effect rating, ECHORC",[6]; 0.1250 kg/ha,9.0
same,"herbicidal effect rating, ECHORC",[6]; 0.2500 kg/ha,9.0
same,"herbicidal effect rating, CYPSE",CYPSE (Flatsedge); 0.0313 kg/ha,0.0
same,"herbicidal effect rating, CYPSE",CYPSE (Flatsedge); 0.1250 kg/ha,0.0
same,"herbicidal effect rating, CYPSE",CYPSE (Flatsedge); 0.2500 kg/ha,3.0
"CCOC(=O)CN1C(=O)C(SC)SC1=Nc1cc(-n2c(=O)cc(C(F)(F)F)n(C)c2=O)c(F)cc1Cl (stereo not drawn) [Compound 125, Ethyl 2-{{2-chloro-5-[3,6-dihydro-3-methyl-2,6-dioxo-4-(trifluoromethyl)-1(2H)-pyrimidinyl]-4-fluorophenyl}imino}-5-(methylthio)-4-oxo-3-thiazolidineacetate]",herbicidal rating ABUTH,ABUTH (Velvetleaf) [1]; rate 0.0156 kg/ha,9.0
same,herbicidal rating ABUTH,ABUTH (Velvetleaf) [1]; rate 0.0313 kg/ha,9.0
same,herbicidal rating ABUTH,ABUTH (Velvetleaf) [1]; rate 0.0625 kg/ha,9.0
same,herbicidal rating IPOHE,[2]; rate 0.0156 kg/ha,9.0
same,herbicidal rating IPOHE,[2]; rate 0.0313 kg/ha,9.0
same,herbicidal rating IPOHE,[2]; rate 0.0625 kg/ha,9.0
same,herbicidal rating SETVI,"SETVI (Foxtail, Green); rate 0.0156 kg/ha",2.0
same,herbicidal rating SETVI,"SETVI (Foxtail, Green); rate 0.0313 kg/ha",5.0
same,herbicidal rating SETVI,"SETVI (Foxtail, Green); rate 0.0625 kg/ha",5.0
same,herbicidal rating GLXMAW,[3]; rate 0.0156 kg/ha,7.3
same,herbicidal rating GLXMAW,[3]; rate 0.0313 kg/ha,8.0
same,herbicidal rating GLXMAW,[3]; rate 0.0625 kg/ha,8.7
same,herbicidal rating ZEAMX,"ZEAMX (Corn, Field); rate 0.0156 kg/ha",6.7
same,herbicidal rating ZEAMX,"ZEAMX (Corn, Field); rate 0.0313 kg/ha",7.3
same,herbicidal rating ZEAMX,"ZEAMX (Corn, Field); rate 0.0625 kg/ha",8.0
same,Preemergence herbicidal rating ABUTH,ABUTH (Velvetleaf) [4]; rate 0.0156 kg/ha,0.0
same,Preemergence herbicidal rating ABUTH,ABUTH (Velvetleaf) [4]; rate 0.0313 kg/ha,2.0
same,Preemergence herbicidal rating ABUTH,ABUTH (Velvetleaf) [4]; rate 0.0625 kg/ha,4.0
same,Preemergence herbicidal rating ABUTH,ABUTH (Velvetleaf) [4]; rate 0.1250 kg/ha,6.0
same,Preemergence herbicidal rating ABUTH,ABUTH (Velvetleaf) [4]; rate 0.2500 kg/ha,9.0
same,Preemergence herbicidal rating ABUTH,ABUTH (Velvetleaf) [4]; rate 0.5000 kg/ha,9.0
same,Preemergence herbicidal rating AMBEL,"AMBEL (Ragweed, Common); rate 0.0156 kg/ha",0.0
same,Preemergence herbicidal rating AMBEL,"AMBEL (Ragweed, Common); rate 0.0313 kg/ha",6.0
same,Preemergence herbicidal rating AMBEL,"AMBEL (Ragweed, Common); rate 0.0625 kg/ha",9.0
same,Preemergence herbicidal rating AMBEL,"AMBEL (Ragweed, Common); rate 0.1250 kg/ha",9.0
same,Preemergence herbicidal rating AMBEL,"AMBEL (Ragweed, Common); rate 0.2500 kg/ha",9.0
same,Preemergence herbicidal rating AMBEL,"AMBEL (Ragweed, Common); rate 0.5000 kg/ha",9.0
same,Preemergence herbicidal rating CASOB,CASOB (Sicklepod); rate 0.0156 kg/ha,0.0
same,Preemergence herbicidal rating CASOB,CASOB (Sicklepod); rate 0.0313 kg/ha,1.0
same,Preemergence herbicidal rating CASOB,CASOB (Sicklepod); rate 0.0625 kg/ha,3.0
same,Preemergence herbicidal rating CASOB,CASOB (Sicklepod); rate 0.1250 kg/ha,2.0
same,Preemergence herbicidal rating CASOB,CASOB (Sicklepod); rate 0.2500 kg/ha,9.0
same,Preemergence herbicidal rating CASOB,CASOB (Sicklepod); rate 0.5000 kg/ha,9.0
same,Preemergence herbicidal rating IPOHE,[5]; rate 0.0156 kg/ha,0.0
same,Preemergence herbicidal rating IPOHE,[5]; rate 0.0313 kg/ha,0.0
same,Preemergence herbicidal rating IPOHE,[5]; rate 0.0625 kg/ha,4.0
same,Preemergence herbicidal rating IPOHE,[5]; rate 0.1250 kg/ha,4.0
same,Preemergence herbicidal rating IPOHE,[5]; rate 0.2500 kg/ha,9.0
same,Preemergence herbicidal rating IPOHE,[5]; rate 0.5000 kg/ha,9.0
same,Preemergence herbicidal rating ECHCG,ECHCG (Barnyardgrass); rate 0.0156 kg/ha,0.0
same,Preemergence herbicidal rating ECHCG,ECHCG (Barnyardgrass); rate 0.0313 kg/ha,0.0
same,Preemergence herbicidal rating ECHCG,ECHCG (Barnyardgrass); rate 0.0625 kg/ha,0.0
same,Preemergence herbicidal rating ECHCG,ECHCG (Barnyardgrass); rate 0.1250 kg/ha,3.0
same,Preemergence herbicidal rating ECHCG,ECHCG (Barnyardgrass); rate 0.2500 kg/ha,7.0
same,Preemergence herbicidal rating ECHCG,ECHCG (Barnyardgrass); rate 0.5000 kg/ha,9.0
same,"herbicidal effect rating, ECHORC",[6]; 0.0313 kg/ha,2.0
same,"herbicidal effect rating, ECHORC",[6]; 0.0625 kg/ha,4.0
same,"herbicidal effect rating, ECHORC",[6]; 0.1250 kg/ha,7.0
same,"herbicidal effect rating, ECHORC",[6]; 0.2500 kg/ha,7.0
same,"herbicidal effect rating, CYPSE",CYPSE (Flatsedge); 0.0313 kg/ha,2.0
same,"herbicidal effect rating, CYPSE",CYPSE (Flatsedge); 0.0625 kg/ha,4.0
same,"herbicidal effect rating, CYPSE",CYPSE (Flatsedge); 0.1250 kg/ha,9.0
same,"herbicidal effect rating, CYPSE",CYPSE (Flatsedge); 0.2500 kg/ha,9.0
